Measured values: ChEMBL document CHEMBL1151567, “Synthesis and anti HIV-1 activity of new thiadiazepindioxides” (Bioorg Med Chem Lett, 1995)

Key:
[1] = tested on: C8166; experiment: Antiviral activity was evaluated by inhibition of HIV-1 replication in CD4+ lymphoblastoid cell line infected with HIV/IIIB strain; type: functional, cell-based; settings: Homo sapiens
[2] = tested on: C8166; experiment: Ratio of CC50 to that of IC50 was determined; type: functional
[3] = tested on: C8166; experiment: Cytotoxic activity was evaluated in CD4+ lymphoblastoid cell line; type: functional; settings: Homo sapiens

For `Cc1cc2c(cc1Cl)Nc1ncccc1N(C)S2(=O)=O`, the IC50 [1] was > 300 µM.
With `Cc1cc2c(cc1C)N(C)S(=O)(=O)C1=CC=CN(C(C)C)C1=N2` the IC50 [1] was 0.6 µM, the Selectivity index [2] was >50 and the CC50 [3] was > 30 µM.
For `CCN1c2ccccc2S(=O)(=O)N(C)c2cccnc21`, the IC50 [1] was > 300 µM.
`CC(C)=CCN1Cc2cc(Cl)cc3[nH]c(=S)n(c23)C[C@@H]1C` was tested, and the IC50 [1] was 0.0015 µM, the Selectivity index [2] was 22600 and the CC50 [3] was 34 µM.
`CCN1C=CC=C2C1=Nc1ccccc1S(=O)(=O)N2C` gave an IC50 [1] of 3.7 µM, a Selectivity index [2] of 22 and a CC50 [3] of 80 µM.
With `CN1c2cccnc2Nc2ccccc2S1(=O)=O` the IC50 [1] was > 300 µM.
With `Cc1cc2c(cc1C)N(C)S(=O)(=O)c1cccnc1N2` the IC50 [1] was 4 µM, the Selectivity index [2] was >31 and the CC50 [3] was > 125 µM.
Work on `CCN1C=CC=C2C1=Nc1cc(Cl)c(C)cc1S(=O)(=O)N2C` yielded an IC50 [1] of 0.28 µM, a Selectivity index [2] of 42 and a CC50 [3] of 12 µM.
For `CCN1C=CC=C2C1=Nc1cc(C)c(C)cc1N(C)S2(=O)=O`, the IC50 [1] was 0.33 µM, the Selectivity index [2] was >90 and the CC50 [3] was > 30 µM.
In the case of `CCN1c2cc(Cl)c(C)cc2S(=O)(=O)N(C)c2cccnc21`, the IC50 [1] is reported as 48 µM, the Selectivity index [2] is reported as >1 and the CC50 [3] is reported as > 60 µM.
`Cc1cc2c(cc1C)N(C)S(=O)(=O)c1cccnc1N2C(C)C` was tested, and the IC50 [1] was 0.032 µM, the Selectivity index [2] was >1875 and the CC50 [3] was > 60 µM.
`CCN1c2cc(C)c(C)cc2N(C)S(=O)(=O)c2cccnc21` was tested, and the IC50 [1] was 0.04 µM, the Selectivity index [2] was 3750 and the CC50 [3] was 150 µM.
In the case of `CN1c2cccnc2Nc2ncccc2S1(=O)=O`, the IC50 [1] is reported as 7 µM, the Selectivity index [2] is reported as >17 and the CC50 [3] is reported as > 125 µM.
With `CCN1c2ncccc2N(C)S(=O)(=O)c2cccnc21` the IC50 [1] was > 300 µM, the Selectivity index [2] was <1 and the CC50 [3] was 300 µM.
In the case of `O=c1[nH]cnc2c1ncn2[C@H]1CC[C@@H](CO)O1` [DIDANOSINE], the IC50 [1] is reported as 1 µM, the Selectivity index [2] is reported as 9000 and the CC50 [3] is reported as 9000 µM.
In the case of `Cc1ccnc2c1NC(=O)c1cccnc1N2C1CC1` [NEVIRAPINE], the IC50 [1] is reported as 0.04 µM, the Selectivity index [2] is reported as 8025 and the CC50 [3] is reported as 321 µM.
`Cc1cn([C@H]2C[C@H](N=[N+]=[N-])[C@@H](CO)O2)c(=O)[nH]c1=O` [ZIDOVUDINE] was tested, and the IC50 [1] was 0.004 µM, the Selectivity index [2] was 350000 and the CC50 [3] was 1400 µM.
